Data published in patent US7700628B2, “Aromatic ether derivatives useful as thrombin inhibitors” (Eli Lilly and Company, priority 2004, dated 2010).
Structures can show the parent of a compound that is named as a salt.

Key:
human factor Xa = biological target: T1, human factor Xa (Homo sapiens, UniProt P00742); test: Kass determination, chromogenic substrate hydrolysis, factor Xa; type: biochemical; details: apparent association constant, mean value; set range given with 'or greater'
T1 construct: enzyme solution (e.g., human factor Xa, 32 nM in 0.03 M Tris, 0.15 M NaCl, 1 mg/mL HAS)
Protocol: (§1) The inhibition by a compound of the invention of a serine protease of the human blood coagulation system or of the fibrinolytic system, as well as of trypsin, is determined in vitro for the particular enzyme by measuring its inhibitor binding affinity in an assay in which the enzyme hydrolyzes a particular chromogenic substrate, for example as described in Smith, G. F.; Gifford-Moore, D.; Craft, T. J.; Chirgadze, N.; Ruterbories, K. J.; Lindstrom, T. D.; Satterwhite, J. H. Efegatran: A New Cardiovascular Anticoagulant. New Anticoagulants for the Cardiovascular Patient; Pifarre, R., Ed.; Hanley & Belfus, Inc.: Philadelphia, 1997; pp. 265-300. The inhibitor binding affinity is measured as apparent association constant Kass which is the hypothetical equilibrium constant for the reaction between enzyme and the test inhibitor compound (I).
(§2) [formula] [formula] Conveniently, enzyme inhibition kinetics are performed in a high-volume protocol using automated dilutions of inhibitors (n=3 for each of four to eight inhibitor concentrations) into 96-well polystyrene plates and reaction rates are determined from the rate of hydrolysis of appropriate p-nitroanilide substrates at 405 nm using a Thermomax plate reader from Molecular Devices (San Francisco, Calif.). The same general protocol is followed for all enzymes studied: In each well is placed 50 μL buffer (0.06 M Tris, 0.3 M NaCl, pH 7.4), followed by 25 μL of inhibitor solution (in 100 % methanol) and 25 μL enzyme solution (e.g., human factor Xa, 32 nM in 0.03 M Tris, 0.15 M NaCl, 1 mg/mL HAS); finally, within two minutes, 150 μL aqueous solution of chromogenic substrate (e.g., 0.3 mM BzIle-Glu-Gly-Arg-pNA) is added to start the enzymatic reaction. Final factor Xa concentration is 3.2 nM. The rates of chromogenic substrate hydrolysis reactions provide a linear relationship with the enzymes studied such that free enzyme can be quantitated in reaction mixtures. Data is analyzed directly as rates by the Softmax program to produce [free enzyme] calculations for tight-binding Kass determinations. For apparent Kass determinations, human factor Xa is used to hydrolyze BzIle-Glu-Gly- Arg-pNA (SEQ ID NO: 1); 5.9 nM human thrombin is used to hydrolyze 0.2 mM BzPhe-Val-Arg-pNA; 3.4 nM human plasmin is used with 0.5 mM HD-Val-Leu-Lys-pNA; 1.2 nM human nt-PA is used with 0.8 mM HD-Ile-Pro-Arg-pNA; and 0.4 nM urokinase is used with 0.4 mM pyro-Glu-Gly-Arg-pNA.
(§3) Kass is calculated for a range of concentrations of test compounds which produce hydrolysis inhibition of between 20% and 80% of control and the mean value reported in units of liter per mole. […] For example, the respective Kass values as to factor Xa/thrombin for Examples 41, 60, 106, 115, 1403 and 1414 are 407/16.9, 430/4.2, 3630/308, 3013/40 and 3630/308×10^6 L/mole.

human thrombin = human thrombin (Homo sapiens, UniProt P00734); test: Kass determination, chromogenic substrate hydrolysis, thrombin; type: biochemical; details: apparent association constant, mean value; set range given with 'or greater'
Protocol: as §1, §2, §3

T1 sequence (P00742 235-488 limits assumed): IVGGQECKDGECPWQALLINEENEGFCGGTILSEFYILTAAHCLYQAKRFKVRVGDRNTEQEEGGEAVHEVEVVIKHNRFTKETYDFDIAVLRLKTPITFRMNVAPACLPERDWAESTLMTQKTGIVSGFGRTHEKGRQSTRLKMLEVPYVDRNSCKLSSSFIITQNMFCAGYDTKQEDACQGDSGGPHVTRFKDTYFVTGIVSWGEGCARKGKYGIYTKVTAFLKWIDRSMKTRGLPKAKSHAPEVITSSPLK
T1 sequence (P00742 41-179 partner limits assumed): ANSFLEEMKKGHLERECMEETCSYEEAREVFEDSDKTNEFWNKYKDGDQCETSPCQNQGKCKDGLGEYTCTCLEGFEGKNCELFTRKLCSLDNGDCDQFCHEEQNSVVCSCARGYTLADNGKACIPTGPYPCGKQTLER

Compound: NCCOc1cc(N2CCOCC2)ccc1C(=O)Nc1ccc(F)cc1C(=O)Nc1ccc(Cl)cn1 [Example 41, 2-[2-(2-Aminoethoxy)-4-(morpholin-4-yl)benzoylamino]-N-(5-chloro-pyridin-2-yl)-5-fluorobenzamide Trifluoroacetate]
- Kass for factor Xa (human factor Xa): 4.07e+08 L/mol
- Kass for thrombin (factor IIa) (human thrombin): 1.69e+07 L/mol

Compound: CC(C)(C)c1ccc(CNc2ccc(Cl)cc2C(=O)Nc2ccc(Cl)cn2)c(OC2CCNCC2)c1 [Example 56, 2-[4-(tert-Butyl)-2-(piperidin-4-yloxy)benzylamino]-5-chloro-N-(5-chloropyridin-2-yl)benzamide]
- melting point: 153.6 to 154.5 °C

Compound: CC(C)(C)c1ccc(CNc2ccccc2C(=O)Nc2ccc(Cl)cn2)c(OC2CCNCC2)c1 [Example 59, 2-[4-(tert-Butyl)-2-(piperidin-4-yloxy)benzylamino]-N-(5-chloro-pyridin-2-yl)benzamide]
- melting point: 169 to 170 °C

Compound: CC(C)(N)c1ccc(C(=O)Nc2ccccc2C(=O)Nc2ccc(Cl)cn2)c(OC2CCNCC2)c1 [Example 60, 2-[4-(1-Amino-1-methyl)ethyl-2-(piperidin-4-yloxy)benzoylamino]-N-(5-chloropyridin-2-yl)benzamide Bis(trifluoroacetate)]
- Kass for factor Xa (human factor Xa): 4.3e+08 L/mol
- Kass for thrombin (factor IIa) (human thrombin): 4.2e+06 L/mol

Compound: CSc1ccc(C(=O)Nc2ccc(Cl)cc2C(=O)Nc2ccc(Cl)cn2)c(OCCCN)c1 [Example 106, 2-[2-(3-Aminopropoxy)-4-(methylthio)benzoylamino]-5-chloro-N-(5-chloropyridin-2-yl)benzamide]
- Kass for factor Xa (human factor Xa): 3.63e+09 L/mol
- Kass for thrombin (factor IIa) (human thrombin): 3.08e+08 L/mol

Compound: NCCCOc1cc(N2CCOCC2)ccc1C(=O)Nc1ccc(F)cc1C(=O)Nc1ccc(Cl)cn1 [Example 115, 2-[2-(3-Aminopropoxy)-4-(morpholin-4-yl)benzoylamino]-N-(5-chloropyridin-2-yl)-5-fluorobenzamide]
- Kass for factor Xa (human factor Xa): 3.013e+09 L/mol
- Kass for thrombin (factor IIa) (human thrombin): 4e+07 L/mol
